“Also recorded” adds a separate entry of the source. Square brackets hold non-standard residues; d marks the D form. Peptide text beside a SMILES is read from it. * marks the point of attachment. ξ: configuration not given here. Dansyl = CN(C)c1cccc2c(S(=O)(=O)*)cccc12; ξQ = NC(=O)CCC(N)C(=O)O; Ahx = NCCCCCC(=O)O

For data set [1] the following is noted: fluorescein in FITC-β-Ala-QG; cited from earlier work.
Data set [2] addresses T1, MTG (Streptomyces mobaraensis, UniProt P81453).
T1 construct: purchased AJINOMOTO (supplied as a gift)
The experiment in a line: MTG-catalyzed introduction of fluorescent substrates into NK6-AP (SDS-PAGE, fluorescent imager). The data set is classed as biochemical, microbial. The following applies: NK6-AP 0.5 mg/ml, MTG 1 U/ml; for Reactivity of MTG for fluorescent substrate (introduction into NK6-AP): substrate 1 mM, 10 mM Tris-HCl pH 8, overnight 4° C. On the procedure:
To perform a binding reaction, the fluorescent substrate (FITC-ε-Acp-QG, FITC-β-Ala-QG, Flc-QG, TR-β-Ala-QG or Dns-ε-Acp-QG), NK6-AP and MTG were added to 10 mM Tris-HCl (pH 8) to give respective final concentrations of 1 mM, 0.5 mg/ml and 1 U/ml and they were thoroughly agitated and the resulting solution was left to stand overnight at 4° C. For the purpose of comparison, an MTG-free sample was prepared.
After the reaction, the samples were subjected to SDS-polyacrylamide gel electrophoresis (SDS-PAGE). The gel from SDS-PAGE was examined with a fluorescent imager before it was stained with Coomassie Brilliant Blue (CBB) in solution. For the sample containing Dns-ε-Acp-QG, examination was made with a transilluminator.
A study was made using FITC-β-Ala-QG as a fluorescent substrate. The reaction conditions for introducing FITC-β-Ala-QG into NK6-AP were as follows: FITC-β-Ala-QG, NK6-AP and MTG were added to 10 mM Tris-HCl (pH 8) to give respective final concentrations of 0.1 mM, 0.5 mg/ml and 0.1 U/ml and they were thoroughly agitated at 4° C. for 0-5 hours. To trace the binding, the gel from SDS-PAGE was analyzed by a fluorescent imager.
A study was made using FITC-β-Ala-QG as a fluorescent substrate. The reaction conditions for introducing FITC-β-Ala-QG into NK6-AP were as follows: FITC-β-Ala-QG, NK6-AP and MTG were added to 10 mM Tris-HCl (pH 8) to give respective final concentrations of 1-1000 μM, 0.5 mg/ml and 0.1 U/ml and they were thoroughly agitated at 4° C. for 15 minutes. Tracing on the sample after the reaction was performed by the same procedure as in Experiment 2-4.
Dns-β-Ala-QG-biotin, NK6-AP and MTG were added to 20 mM Tris-HCl (pH 8) to give respective final concentrations of 100 μM, 0.5 mg/ml, and 1 U/ml. For the purpose of comparison, an MTG-free sample was prepared. The ingredients were thoroughly agitated and the resulting solution was left to stand overnight at 4° C. for reaction.
After the reaction, the samples were subjected to SDS-polyacrylamide gel electrophoresis (SDS-PAGE). The gel from SDS-PAGE was examined with a transilluminator before it was stained with Coomassie Brilliant Blue (CBB) in solution.
To a 50 mM buffer whose pH was varied over the range of from 5 to 9, FITC-β-Ala-QG, NK6-AP and MTG were added to give respective final concentrations of 0.1 mM, 0.5 mg/ml, and 0.1 U/ml. These ingredients were well stirred and left to stand at 4° C. for reaction. After 6-hr or 15-minute reaction, the sample was mixed with a sample buffer and heated at 95° C. for 15 minutes to stop the reaction. Thereafter, SDS-polyacrylamide gel electrophoresis (SDS-PAGE) was applied. The gel from SDS-PAGE was stained with Coomassie Brilliant Blue (CBB) and observed with a fluorescent imager.
To 50 mM Tris-HCl (pH 8), FITC-β-Ala-QG, NK6-AP and MTG were added to give respective final concentrations of 0.1 mM, 0.5 mg/ml, and 0.001-1 U/ml. These ingredients were well stirred and left to stand at 4° C. for reaction. The reaction was stopped and evaluation was made by the same procedures as in Experiment 2-2.
To 50 mM Tris-HCl (pH 8), FITC-β-Ala-QG-alkyne, NK6-AP and MTG were added to give respective final concentrations of 0.1 mM, 0.5 mg/ml, and 0.1 U/ml. For the purpose of comparison, a MTG-free sample was also prepared. Both samples were well stirred and left to stand at 4° C. for reaction. The reaction was stopped and evaluation was made by the same procedures as in Experiment 2-2.

The target of data set [3] is T1, MTG. The experiment in a line: MTG-catalyzed introduction of fluorescent substrates into anti-lysozyme IgG2a antibody. Type of data set: biochemical, microbial. The note with it: substrate 1 mM, mouse anti-lysozyme IgG2a 0.5 mg/ml, MTG 1 U/ml, pH 7, overnight 4° C.; reduced SDS-PAGE. On the procedure: A fluorescent substrate (FITC-ε-Acp-QG, FITC-β-Ala-QG, TR-β-Ala-QG or […]), mouse-derived anti-lysozyme IgG2a antibody (monoclonal) and MTG were added to a 10 mM phosphate buffer (pH 7) to give respective final concentrations of 1 mM, 0.5 mg/ml and 1 U/ml. For the purpose of comparison, an MTG-free sample was prepared. The ingredients were thoroughly agitated and the resulting solution was left to stand overnight at 4° C.
After the reaction, the samples were subjected to SDS-PAGE. The gel from SDS-PAGE was examined with a fluorescent imager before it was stained with a CBB dye solution. For the Dns-ε-Acp-QG containing sample, examination was made with a transilluminator.

Data set [4] concerns the target T1, MTG. The experiment in a line: MTG-catalyzed introduction of fluorescent substrates into NK6-AP (SDS-PAGE, fluorescent imager). The following applies: substrate 1 mM, NK6-AP 0.5 mg/ml, MTG 1 U/ml, 10 mM Tris-HCl pH 8, overnight 4° C.; listed as Dns-β-Acp-QG. Type of data set: biochemical, microbial.
Data set [5] has as its target avidin (Gallus gallus, UniProt P02701). The note with it: cited from earlier work.
Data set [6] deals with T2, NK6-AP (Escherichia coli, UniProt P00634).
T2 construct: NK6-AP; MKHKGSTPEMP-ALGLKLEHHHHHH; made in house
T2 sequence (P00634 22-471): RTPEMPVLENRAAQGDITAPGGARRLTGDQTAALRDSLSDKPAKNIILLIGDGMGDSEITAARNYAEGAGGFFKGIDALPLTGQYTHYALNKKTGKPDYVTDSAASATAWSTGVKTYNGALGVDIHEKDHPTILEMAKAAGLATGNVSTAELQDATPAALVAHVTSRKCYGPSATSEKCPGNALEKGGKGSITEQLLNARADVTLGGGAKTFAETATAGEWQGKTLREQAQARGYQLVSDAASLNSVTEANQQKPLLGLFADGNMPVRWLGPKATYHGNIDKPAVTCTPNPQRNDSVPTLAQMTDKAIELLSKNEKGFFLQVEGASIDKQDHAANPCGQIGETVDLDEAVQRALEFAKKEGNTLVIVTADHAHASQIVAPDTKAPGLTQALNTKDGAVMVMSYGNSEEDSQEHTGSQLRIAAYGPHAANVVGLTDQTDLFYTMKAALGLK
The data set can be described thus: Effect of modification on the enzymatic activity of NK6-AP (p-NPP). The note with it: AP 28 nM, p-NPP 1 mM, pH 8.0, 27° C., with vs without MTG. The data set is classed as biochemical. How it is done:
The effect of introduction on the enzymatic activity was studied. In the study, p-nitrophenylphosphoric acid (p-NPP) was used as a substrate and the activities of the samples prepared in Experiment 2-2 were measured; AP would catalyze the dephosphorylation of p-NPP to form p-nitrophenol (p-NP). The reaction conditions for activity measurement were AP 28 nM, p-NPP 1 mM and pH 8.0 and at a controlled temperature of 27° C., the p-NP derived absorption at 410 nm was traced.
The activities of the samples prepared in Experiment 2-2 were measured, with p-nitrophenylphosphoric acid (p-NPP) being used as a substrate; AP would catalyze the dephosphorylation of p-NPP to form p-nitrophenol (p-NP). The reaction conditions for activity measurement were AP 28 nM, p-NPP 1 mM and pH 8.0 and at a controlled temperature of 27° C., the p-NP derived absorption at 410 nm was traced.
With p-nitrophenylphosphoric acid (p-NPP) being used as a substrate, the sampled prepared in Experiment 2-4 were measured; AP would catalyze the dephosphorylation of p-NPP to form p-nitrophenol (p-NP) (see below). The reaction conditions for activity measurement were AP 28 nM, p-NPP 1 mM and pH 8.0 and at a controlled temperature of 27° C., the p-NP derived absorption at 410 nm was traced.

In data set [7] the target is T2, NK6-AP. The data set can be described thus: Degree of labeling of dual labeled protein (absorbance at 280 nm and 330 nm). The note with it: after His-tag purification. How it is done: By His-tag purification on a Ni-NTA column, the dual labeled protein was separated from an excess of Dns-β-Ala-QG-biotin. An excess of the imidazole used in the elution step was removed by gel filtration purification on a PD-10 column with 20 mM Tris-HCl (pH 8) being used as an elution buffer.
The resulting dual labeled protein was concentrated with a suction-type centrifugal evaporator and an attempt was made to calculate the degree of its labeling by measuring the absorbance at 280 nm and 330 nm.

Data set [8] concerns BSA (antigen). The experiment in a line: Antigen recognizing ability by ELISA (rabbit-derived anti-BSA IgG antibody). The data set is classed as binding. The following applies: rabbit-derived anti-BSA IgG antibody (polyclonal) modified by MTG. On the procedure:
A study was made on samples that were prepared by introducing a fluorescent substrate (FITC-ε-Acp-QG or FITC-β-Ala-QG) into a rabbit-derived anti-BSA IgG antibody (polyclonal) under the same conditions as in Experiment 2-2.
ELISA was performed by the following procedure (FIG. 3-5). • 1) To a Black Plate, 5 mg/ml of BSA (antigen) was added in an amount of 150 µl/well and left to stand overnight at 37° C. • 2) The product of 1) was washed with PBST five times. • 3) Modified anti-BSA IgG antibodies were added in an amount of 60 µl/well and left to stand at room temperature for 5 hours. • 4) The product of 3) was washed with PBST five times. • 5) Examination was made with a fluorescent imager. • 6) A […] sample of AP-labeled anti-rabbit IgG IgG antibodies were added in an amount of 150 µl/well and left to stand at 37° C. for 3 hours. • 7) The product of 6) was washed with TBST five times. • 8) The substrate was added and 10 minutes later, fluorescence derived from the enzymatic reaction was examined with a fluorescent imager.
In general terms: An ELISA detects its analyte on a solid surface through an enzyme-linked reagent.

The subject of data set [9] is avidin. The data set can be described thus: Immobilizing the dual labeled protein on avidin-coated microplate. Type of data set: binding. The following applies: 1.5 μM, 37° C., 1 h; dansyl fluorescence and AP activity (ECF). On the procedure: 2-6. Immobilizing the Dual Labeled Protein on Microplate • 1) After His-tag purification, the dual labeled protein (1.5 μM) was dissolved in 20 mM Tris-HCl (pH 8) and added onto an avidin-coated microplate (product of Nunc) in an amount of 100 μl/well so that it would be immobilized by the interaction between biotin and avidin (37° C., 1 h). • 2) To observe the fluorescence derived from dansyl groups, 20 mM Tris-HCl (pH 8) was added in an amount of 100 μl/well and immobilization was verified by a fluorescent imager. • 3) A solution of ECF as a fluorescent substrate of AP was diluted 100 folds with 1 M Tris-HCl (pH 8) and added onto the plate in an amount of 100 μl/well for reaction with the immobilized AP (25° C., 5 min). (Before steps 2) and 3), a microplate washer was used to wash the plate with TBST (TBS+[…] Tween 20) three times each in an amount of 300 μl/well.)

T1 sequence (P81453 77-407): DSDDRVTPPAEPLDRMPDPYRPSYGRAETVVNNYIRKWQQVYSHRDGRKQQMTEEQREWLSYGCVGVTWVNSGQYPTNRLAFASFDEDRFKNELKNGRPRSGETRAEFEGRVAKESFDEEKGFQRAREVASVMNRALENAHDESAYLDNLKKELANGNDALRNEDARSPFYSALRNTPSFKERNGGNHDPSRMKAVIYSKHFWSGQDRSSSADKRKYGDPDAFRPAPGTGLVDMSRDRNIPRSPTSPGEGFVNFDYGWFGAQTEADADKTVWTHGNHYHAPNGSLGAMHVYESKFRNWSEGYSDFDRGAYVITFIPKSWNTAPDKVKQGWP
Chain of avidin (Gallus gallus, UniProt P02701) (P02701 25-152, species assumed): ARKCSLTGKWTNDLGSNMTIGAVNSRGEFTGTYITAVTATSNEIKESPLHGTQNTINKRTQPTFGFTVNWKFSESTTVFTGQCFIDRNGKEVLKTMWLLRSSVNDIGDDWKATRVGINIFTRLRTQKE

The term pKa denotes the negative logarithm of the acid dissociation constant. Take fluorescein isothiocyanate [FITC]: the pKa in data set [1] was 6.4.

As to `CN(C)c1cccc2c(S(=O)(=O)NCCCCCC(=O)NC(CCC(N)=O)C(=O)NCC(=O)O)cccc12` (stereo not shown) [Dns-ε-Acp-QG] ({Dansyl-Ahx}-[ξQ]-Gly-OH), the figures for the “Reactivity of MTG for fluorescent substrate (introduction into NK6-AP)” value in [2] and in data set [4] were “recognizable as a substrate of MTG” and “served as substrates of MTG”, respectively. In data set [3], the “Reactivity of antibody with fluorescent substrate by MTG catalysis” value is “H chains of the antibody are modified; also recorded: site-specific modification of the H chains in the antibody”.

Regarding `NC(=O)CCC(NC(=O)c1ccc(-c2c3ccc(=O)cc-3oc3cc(O)ccc23)c(C(=O)O)c1)C(=O)NCC(=O)O` (stereo not shown) [Flc-QG], the “Reactivity of MTG for fluorescent substrate (introduction into NK6-AP)” value in data set [2] was “not recognizable by MTG; also recorded: not recognized as a substrate”.

On to `O=C(O)CCCC[C@@H]1SC[C@@H]2NC(=O)N[C@@H]21` [biotin], for which, in data set [5], the Ka is 10^15 M.

As to `CN(C)c1cccc2c(S(=O)(=O)NCCC(=O)NC(CCC(N)=O)C(=O)NCC(=O)NCCOCCOCCNC(=O)CCCC[C@@H]3SC[C@@H]4NC(=O)N[C@@H]43)cccc12` (stereo partly drawn) [Dns-β-Ala-QG-biotin], the “Reactivity of MTG for dual labeled substrate (introduction into NK6-AP)” value in data set [2] (substrate 100 μM, 20 mM Tris-HCl pH 8, overnight 4° C.) is “had been introduced into NK6-AP; also recorded: confirmed the MTG-catalyzed introduction”. Also, in [6], the “Relative activity of NK6-AP after MTG-catalyzed introduction” value is given as “hardly any difference in the activity of AP; also recorded: in no way affected by the introduction”. In addition, the “Degree of labeling (moles of dansyl groups / moles of NK6-AP)” value in data set [7] is 1.1.

For the molecule `NC(=O)CCC(NC(=O)CCCCCNC(=S)Nc1ccc(-c2c3ccc(=O)cc-3oc3cc(O)ccc23)c(C(=O)O)c1)C(=O)NCC(=O)O` (stereo not shown) [FITC-ε-Acp-QG], the “Reactivity of MTG for fluorescent substrate (introduction into NK6-AP)” value in [2] was “served as substrates of MTG; also recorded: recognizable as a substrate of MTG”. Moreover, the “Reactivity of antibody with fluorescent substrate by MTG catalysis” value in [3] is on record as “H chains of the antibody are modified; also recorded: site-specific modification of the H chains in the antibody”. For the same molecule, the “Antigen recognizing ability of modified antibody” value in data set [8] is reported as “maintained its antigen recognizing ability”.

B1: dual labeled protein: NK6-AP into which Dns-β-Ala-QG-biotin was introduced by MTG catalysis (conjugate)
chain: MKHKGSTPEMPVLENRAAQGDITAPGGARRLTGDQTAALRDSLSDKPAKNIILLIGDGMGDSEITAARNYAEGAGGFFKGIDALPLTGQYTHYALNKKTGKPDYVTDSAASATAWSTGVKTYNGALGVDIHEKDHPTILEMAKAAGLATGNVSTAELQDATPAALVAHVTSRKCYGPSATSEKCPGNALEKGGKGSITEQLLNARADVTLGGGAKTFAETATAGEWQGKTLREQAQARGYQLVSDAASLNSVTEANQQKPLLGLFADGNMPVRWLGPKATYHGNIDKPAVTCTPNPQRNDSVPTLAQMTDKAIELLSKNEKGFFLQVEGASIDKQDHAANPCGQIGETVDLDEAVQRALEFAKKEGNTLVIVTADHAHASQIVAPDTKAPGLTQALNTKDGAVMVMSYGNSEEDSQEHTGSQLRIAAYGPHAANVVGLTDQTDLFYTMKAALGLKLEHHHHHH
Turning to B1, the “Immobilization on avidin-coated microplate” value in data set [9] is listed as “immobilized on the microplate while retaining its function”.

Source of the values: patent publication US20110184147A1, “ENZYME SUBSTRATE FOR LABELING OF PROTEIN” (priority 2008, published 2011).
